Source: patent US20200131196A1 (Mount Tam Therapeutics, Inc., priority 2017, published 2020)
Like-named read-outs stand apart in the source and are kept apart here.

Experiments:
[1] = system: A388; assay: OncoPanel cell proliferation assay, A388; type: cell-based, human; settings: for EC50 / GI50 / IC50: Homo sapiens; for EC50: read-out: Cell Count EC50; for GI50: read-out: Cell Count GI50; for IC50: read-out: Cell Count IC50
Experimental: (§1) Cells were seeded into 384-well plates and incubated in a humidified atmosphere of 5% CO2 at 37° C. Compounds were added the day following cell seeding. At the same time, a time zero untreated cell plate was generated. After a 3-day incubation period, cells were fixed and stained to allow fluorescence imaging of nuclei. Compounds (1 mM stock solutions) were serially diluted in half-log steps from the highest test concentration ([…]), and assayed over 10 concentrations with a maximum assay concentration of 0.1% DMSO. Automated fluorescence microscopy was carried out using a Molecular Devices ImageXpress Micro XL high-content imager, and images were collected with a 4× objective. 16-bit TIFF images were acquired and analyzed with MetaXpress 5.1.0.41 software.
(§2) Cell proliferation was measured by the fluorescence intensity of an incorporated nuclear dye. The output is referred to as the relative cell count, where the measured nuclear intensity is transformed to percent of control (POC) using the following formula: […]
(§3) Cellular response parameters were calculated using nonlinear regression to a sigmoidal single-site dose response model:
(§4) GI50 is the concentration needed to reduce the observed growth by half (midway between the curve maximum and the time zero value). […] In rare instances, values <0 or >10 may be observed. […] Curve-fitting, calculations, and report generation was performed using a custom data reduction engine and MathIQ based software (AIM).

[2] = system: CEM-C1; assay: OncoPanel cell proliferation assay, CEM-C1; type: cell-based, human; settings: for EC50 / GI50 / IC50: Homo sapiens; for EC50: read-out: Cell Count EC50; for GI50: read-out: Cell Count GI50; for IC50: read-out: Cell Count IC50
Experimental: as §1, with “Cells were grown in RPMI 1640, 10% FBS, 2 mM L-alanyl-L-glutamine, 1 mM Na pyruvate, or a special medium. Cells” for “Cells”
as §2, §3
EC50 is the test compound concentration at the curve inflection point or half the effective response (parameter C of the fitted curve solution). GI50 is the concentration needed to reduce the observed growth by half (midway between the curve maximum and the time zero value). “Cell Count Activity Area” is an estimate of the integrated area above the curve (Barretina, et al. The Cancer Cell Line Encyclopedia enables predictive modelling of anticancer drug sensitivity. Nature 483: 603-607). […] In rare instances, values <0 or >10 may be observed. […] Curve-fitting, calculations, and report generation was performed using a custom data reduction engine and MathIQ based software (AIM).

[3] = system: U2OS; assay: OncoPanel cell proliferation assay, U2OS; type: cell-based, human; settings: for EC50 / GI50 / IC50: Homo sapiens; for EC50: read-out: Cell Count EC50; for GI50: read-out: Cell Count GI50; for IC50: read-out: Cell Count IC50
Experimental: as §1, §2, §3, §4

[4] = system: OVCAR3; assay: OncoPanel cell proliferation assay, OVCAR3; settings: for EC50 / GI50 / IC50: Homo sapiens; for GI50: OVCAR-3, read-out: Cell Count GI50; for IC50: OVCAR-3, read-out: Cell Count IC50; for Cell Count Activity Area / Relative cell count (%) Mean: OVCAR3
Experimental: Cells were seeded into 384-well plates and incubated in a humidified atmosphere of 5% CO2 at 37° C. Compounds were added the day following cell seeding. At the same time, a time zero untreated cell plate was generated. After a 3-day incubation period, cells were fixed and stained to allow fluorescence imaging of nuclei. Compounds (1 mM stock solutions) were serially diluted in half-log steps from the highest test concentration (1 micromol), and assayed over 10 concentrations with a maximum assay concentration of 0.1% DMSO. Automated fluorescence microscopy was carried out using a Molecular Devices ImageXpress Micro XL high-content imager, and images were collected with a 4× objective. 16-bit TIFF images were acquired and analyzed with MetaXpress 5.1.0.41 software.

[5] = at 30 days
From the text: Tumor growth was monitored daily. […] Significance was set at p≤0.05.

[6] = OVCAR-3, read-out: Cell Count EC50

CO[C@H]1C[C@@H]2CC[C@@H](C)[C@@](O)(O2)C(=O)C(=O)N2CCCC[C@H]2C(=O)O[C@H]([C@H](C)C[C@H]2C[C@H]3C[C@@H]2C[C@@H]3O)CC(=O)[C@H](C)/C=C(\C)[C@@H](O)[C@@H](OC)C(=O)[C@H](C)C[C@H](C)/C=C/C=C/C=C/1C [Formula II, C37-[(1R,2S,4R,5S)-5-hyhroxybicyclo[2.2.1]heptane] rapamycin]
Cell Count Activity Area [1]: 1.60
Relative cell count (%) Mean ([1]; 1.00E+00 microM): 62.7%
Relative cell count (%) Mean ([1]; 1.00E-01 microM): 65.6%
Relative cell count (%) Mean ([1]; 1.00E-02 microM): 79.8%
Relative cell count (%) Mean ([1]; 1.00E-03 microM): 80.8%
Relative cell count (%) Mean ([1]; 1.01E-04 microM): 95.5%
Relative cell count (%) Mean ([1]; 3.16E-01 microM): 62.3%
Relative cell count (%) Mean ([1]; 3.17E-02 microM): 66.7%
Relative cell count (%) Mean ([1]; 3.17E-03 microM): 79.0%
Relative cell count (%) Mean ([1]; 3.18E-04 microM): 87.7%
Relative cell count (%) Mean ([1]; 3.18E-05 microM): 86.5%
EC50 [1]: 8.24 nM
GI50 [1]: > 1000 nM
IC50 [1]: > 1000 nM
Cell Count Activity Area [2]: 3.13
Relative cell count (%) Mean ([2]; 1.00E+00 microM): 51.5%
Relative cell count (%) Mean ([2]; 1.00E-01 microM): 56.2%
Relative cell count (%) Mean ([2]; 1.00E-02 microM): 66.8%
Relative cell count (%) Mean ([2]; 1.00E-03 microM): 82.0%
Relative cell count (%) Mean ([2]; 1.01E-04 microM): 98.1%
Relative cell count (%) Mean ([2]; 3.16E-01 microM): 52.4%
Relative cell count (%) Mean ([2]; 3.17E-02 microM): 58.8%
Relative cell count (%) Mean ([2]; 3.17E-03 microM): 73.0%
Relative cell count (%) Mean ([2]; 3.18E-04 microM): 92.1%
Relative cell count (%) Mean ([2]; 3.18E-05 microM): 100.6%
EC50 [2]: 1.8 nM
GI50 [2]: 32.5 nM
IC50 [2]: 265 nM
Cell Count Activity Area [3]: 2.61
Relative cell count (%) Mean ([3]; 1.00E+00 microM): 49.8%
Relative cell count (%) Mean ([3]; 1.00E-01 microM): 51.6%
Relative cell count (%) Mean ([3]; 1.00E-02 microM): 66.4%
Relative cell count (%) Mean ([3]; 1.00E-03 microM): 78.8%
Relative cell count (%) Mean ([3]; 1.01E-04 microM): 98.9%
Relative cell count (%) Mean ([3]; 3.16E-01 microM): 47.3%
Relative cell count (%) Mean ([3]; 3.17E-02 microM): 56.3%
Relative cell count (%) Mean ([3]; 3.17E-03 microM): 81.3%
Relative cell count (%) Mean ([3]; 3.18E-04 microM): 98.6%
Relative cell count (%) Mean ([3]; 3.18E-05 microM): 92.7%
EC50 [3]: 5.4 nM
GI50 [3]: 35 nM
IC50 [3]: 324 nM
EC50 [4]: 43 nM
EC50 [4, 6]: 42.6 nM
GI50 [4]: 301 nM
IC50 [4]: > 1000 nM
Cell Count Activity Area [4]: 1.09
Relative cell count (%) Mean ([4]; 1.00E+00 microM): 70.8%
Relative cell count (%) Mean ([4]; 1.00E-01 microM): 79.0%
Relative cell count (%) Mean ([4]; 1.00E-02 microM): 104.2%
Relative cell count (%) Mean ([4]; 1.00E-03 microM): 101.9%
Relative cell count (%) Mean ([4]; 1.01E-04 microM): 116.6%
Relative cell count (%) Mean ([4]; 3.16E-01 microM): 69.1%
Relative cell count (%) Mean ([4]; 3.17E-02 microM): 88.4%
Relative cell count (%) Mean ([4]; 3.17E-03 microM): 98.5%
Relative cell count (%) Mean ([4]; 3.18E-04 microM): 100.4%
Relative cell count (%) Mean ([4]; 3.18E-05 microM): 99.9%
Percent Survival [5]: 100%
Percent Survival ([5]; listed as Formula I): 100%

CN[C@@H]1C[C@H]2O[C@@](C)([C@@H]1OC)n1c3ccccc3c3c4c(c5c6ccccc6n2c5c31)C(=O)NC4 [Staurosporine, reference compound]
Cell Count Activity Area [1]: 4.99
GI50 [1]: 1.03 nM
Cell Count Activity Area [2]: 4.28
GI50 [2]: 7.27 nM
IC50 [2]: 9.2 nM
GI50 [3]: 2.63 nM
GI50 [4]: 6.11 nM
Cell Count Activity Area [4]: 3.41

CO[C@H]1C[C@@H]2CC[C@@H](C)[C@@](O)(O2)C(=O)C(=O)N2CCCC[C@H]2C(=O)O[C@H]([C@H](C)C[C@@H]2CC[C@@H](O)[C@H](OC)C2)CC(=O)[C@H](C)/C=C(\C)[C@@H](O)[C@@H](OC)C(=O)[C@H](C)C[C@H](C)/C=C/C=C/C=C/1C [Rapamycin, reference compound]
EC50 [1]: > 1000 nM
GI50 [1]: > 1000 nM
IC50 [1]: > 1000 nM
Cell Count Activity Area [2]: 3.61
EC50 [2]: 0.265 nM
GI50 [2]: 4.36 nM
IC50 [2]: > 1000 nM
Cell Count Activity Area [3]: 3.04
EC50 [3]: 0.65 nM
GI50 [3]: 2.54 nM
IC50 [3]: > 1000 nM
EC50 [4, 6]: 1.53 nM
GI50 [4]: 124 nM
IC50 [4]: > 1000 nM
Cell Count Activity Area [4]: 2.08
